{"source": "patent US6699860B2", "about": "“Di-substituted aminomethyl-chroman derivative beta-3 adrenoreceptor agonists” (Bayer Pharmaceuticals Corporation, priority 2000, dated 2004)"}
{"target": "T1, human beta-3-adrenergic receptor (Homo sapiens, UniProt P13945)", "T1 construct": "Chinese hamster ovary (CHO) cells that stably express full-length human beta-3-adrenergic receptor; expressed in transfected cells", "T1 sequence (P13945 whole entry)": "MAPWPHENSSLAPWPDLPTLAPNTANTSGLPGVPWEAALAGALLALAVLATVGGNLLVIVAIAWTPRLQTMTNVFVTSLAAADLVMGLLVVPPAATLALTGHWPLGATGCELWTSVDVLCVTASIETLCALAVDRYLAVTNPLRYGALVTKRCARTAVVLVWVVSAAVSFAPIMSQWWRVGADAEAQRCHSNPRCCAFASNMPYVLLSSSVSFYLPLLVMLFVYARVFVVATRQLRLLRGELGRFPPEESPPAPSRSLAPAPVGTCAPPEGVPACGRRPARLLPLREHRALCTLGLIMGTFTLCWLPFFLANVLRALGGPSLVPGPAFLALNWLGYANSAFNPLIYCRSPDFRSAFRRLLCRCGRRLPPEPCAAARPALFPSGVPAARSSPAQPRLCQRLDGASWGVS", "assay": "cAMP production (SPA) in CHO cells stably expressing human beta-3-adrenergic receptor, agonist activity", "assay_type": "cell-based", "settings": "cAMP production in CHO cells expressing human beta-3-adrenergic receptor; compounds binned (≦1 μM or >1 μM); read-out: Beta-3 Agonistic Activity, EC50 values", "experimental": "The cell line is grown in 90% F12 nutrient mixture (HAM), 10% fetal bovine serum, 100 units/ml penicillin G sodium, […] streptomycin sulfate, and 2 mM L-glutamine at 37° C. in 95% air and 5% CO2. The transfected cell line is maintained with G418 (800ug/ml).\nTo test agonist activity, cells are exposed to test compound and then assayed for cAMP production. […] Test compounds are assayed from 10 μM to 3 nM with 3-fold serial dilutions. The control agonist, isoproterenol (10 mM stock in 1.1 mM ascorbate), is assayed by 3-fold dilution beginning at 1 μM. Following a 30-minute incubation with the test compounds, the buffer/compound mixture is removed. […] The cAMP values are then plotted to ascertain the EC50 of each compound tested.", "units": {"EC50": "nM"}}
{"smiles": "O=C(O)c1ccc(-c2ccc3c(c2)CC[C@H](CNC[C@H](O)COc2cccc4[nH]c5ccccc5c24)O3)cc1", "note": "[Example 141, 4-[(2R)-2-({[(2S)-3-(9H-Carbazol-4-yloxy)-2-hydroxypropyl]amino}methyl)-3,4-dihydro-2H-chromen-6-yl]benzoic acid]", "EC50": "≤ 1000"}
{"smiles": "CC(C)c1sc(-c2ccc3c(c2)CC[C@H](CNC[C@H](O)COc2ccccc2)O3)nc1C(=O)O", "note": "[Example 191]", "EC50": "≤ 1000"}
{"smiles": "O=C(O)c1cc(-c2ccc3c(c2)CC[C@H](CNC[C@H](O)COc2ccccc2)O3)cs1", "note": "[Example 183]", "EC50": "≤ 1000"}
{"smiles": "COc1ccc(OCC(O)CNC[C@H]2CCc3cc(-c4ccc(C(=O)O)cc4)ccc3O2)cc1", "note": "(stereo partly drawn) [Example 230]", "EC50": "> 1000"}
{"smiles": "O=C(O)c1ccc(-c2ccc3c(c2)CC[C@H](CNC[C@H](O)COc2ccccc2)O3)cc1N1CCCCC1", "note": "[Example 202]", "EC50": "≤ 1000"}
{"smiles": "CCOc1cc(-c2ccc3c(c2)CC[C@H](CNC[C@H](O)COc2ccccc2)O3)ccc1C(=O)O", "note": "[Example 207]", "EC50": "≤ 1000"}
{"smiles": "O=C(O)c1ccc(-c2ccc3c(c2)CC[C@H](CNC[C@H](O)COc2ccccc2Cl)O3)cc1", "note": "[Example 252]", "EC50": "≤ 1000"}
{"smiles": "O=C(O)c1ccc(-c2ccc3c(c2)CC[C@H](CNC[C@H](O)COc2ccccc2O)O3)cc1", "note": "[Example 164]", "EC50": "≤ 1000"}
{"smiles": "CC(C)c1nc(-c2ccc3c(c2)CC[C@H](CNC[C@H](O)COc2ccccc2)O3)sc1C(=O)O", "note": "[Example 190]", "EC50": "≤ 1000"}
{"smiles": "O=C(O)CCc1ccc2c(c1)CC[C@H](CNC[C@H](O)COc1ccccc1Cl)O2", "note": "[Example 264, 3-[(2R)-2-({[(2S)-3-(2-chlorophenoxy)-2-hydroxypropyl]amino}methyl)-3,4-dihydro-2H-chromen-6-yl]propanoic acid]", "EC50": "≤ 1000"}
{"smiles": "Cc1ccccc1OCC(O)CNC[C@H]1CCc2cc(-c3ccc(C(=O)O)cc3)ccc2O1", "note": "(stereo partly drawn) [Example 227]", "EC50": "≤ 1000"}
{"smiles": "O[C@@H](CNC[C@H]1CCc2cc(I)ccc2O1)COc1ccccc1", "note": "[Example 80, (2S)-1-({[(2R)-6-iodo-3,4-dihydro-2H-chromen-2-yl]methyl}amino)-3-phenoxy-2-propanol]", "EC50": "≤ 1000"}
{"smiles": "O=C(O)CCc1ccc2c(c1)CC[C@H](CNC[C@H](O)COc1ccc(F)cc1)O2", "note": "[Example 268]", "EC50": "≤ 1000"}
{"smiles": "O=C(O)c1ccc(-c2ccc3c(c2)CC[C@H](CNC[C@H](O)CSc2ccc(F)cc2)O3)cc1", "note": "[Example 176]", "EC50": "> 1000"}
{"smiles": "O=C(O)c1ccc(-c2ccc3c(c2)CC[C@H](CNCC(O)COc2ccccc2-c2ccccc2)O3)cc1", "note": "(stereo partly drawn) [Example 239]", "EC50": "≤ 1000"}
{"smiles": "O=C(O)c1ccc(-c2ccc3c(c2)CC[C@H](CNCC(O)COc2ccc(F)cc2)O3)cc1", "note": "(stereo partly drawn) [Example 232]", "EC50": "≤ 1000"}
{"smiles": "COC(=O)c1cc(-c2ccc3c(c2)CC[C@H](CNC[C@H](O)COc2ccccc2)O3)cc2c1OCC2", "note": "[Example 130]", "EC50": "≤ 1000"}
{"smiles": "CC(C)CNc1cc(-c2ccc3c(c2)CC[C@H](CNC[C@H](O)COc2ccccc2)O3)ccc1C(=O)O", "note": "[Example 200]", "EC50": "≤ 1000"}
{"smiles": "COC(=O)c1nc(-c2ccc3c(c2)CC[C@H](CNC[C@H](O)COc2ccccc2)O3)sc1C(C)C", "note": "[Example 138]", "EC50": "> 1000"}
{"smiles": "COC(=O)c1ccc(-c2ccc3c(c2)CC[C@H](CNC[C@H](O)COc2cccc4[nH]c5ccccc5c24)O3)cc1", "note": "[Example 102]", "EC50": "> 1000"}
{"smiles": "O=C(O)c1ccc(-c2ccc3c(c2)CC[C@H](CNC[C@H](O)COc2ccccc2)O3)cc1-c1ccc(Cl)cc1", "note": "[Example 216]", "EC50": "≤ 1000"}
{"smiles": "O=C(O)CCc1ccc2c(c1)CC[C@H](CNC[C@H](O)COc1cccc(Cl)c1)O2", "note": "[Example 266]", "EC50": "> 1000"}
{"smiles": "O=C(O)c1ccc(-c2ccc3c(c2)CCC(CNC[C@H](O)COc2ccccc2)O3)cc1-c1ccccc1", "note": "(stereo in doubt) [Example 215, 5-[(2S)-2-({[(2S)-2-hydroxy-3-phenoxypropyl]amino}methyl)-3,4-dihydro-2H-chromen-6-yl]-1,1′-biphenyl-2-carboxylic acid]", "EC50": "≤ 1000"}
{"smiles": "O=C(O)c1csc(-c2ccc3c(c2)CC[C@H](CNC[C@H](O)COc2ccccc2)O3)c1", "note": "[Example 186]", "EC50": "≤ 1000"}
{"smiles": "CC(C)(C)c1ccc(-c2cc(-c3ccc4c(c3)CC[C@H](CNC[C@H](O)COc3ccccc3)O4)ccc2C(=O)O)cc1", "note": "[Example 220]", "EC50": "≤ 1000"}
{"smiles": "O=C(O)c1cc(-c2ccc3c(c2)CC[C@H](CNC[C@H](O)COc2ccccc2)O3)cc2c1OCC2", "note": "[Example 185]", "EC50": "≤ 1000"}
{"smiles": "COCCOc1cc(-c2ccc3c(c2)CC[C@H](CNC[C@H](O)COc2ccccc2)O3)ccc1C(=O)O", "note": "[Example 210]", "EC50": "≤ 1000"}
{"smiles": "CCOC(=O)c1nc(-c2ccc3c(c2)CC[C@H](CNC[C@H](O)COc2ccccc2)O3)oc1-c1ccccc1", "note": "[Example 134]", "EC50": "> 1000"}
{"smiles": "O=C(O)c1sc(-c2ccc3c(c2)CC[C@H](CNC[C@H](O)COc2ccccc2)O3)nc1-c1ccccc1", "note": "[Example 189]", "EC50": "≤ 1000"}
{"smiles": "O=C(O)CCc1ccc2c(c1)CC[C@H](CNC[C@H](O)COc1ccc(Cl)cc1)O2", "note": "[Example 267]", "EC50": "> 1000"}
{"smiles": "O=C(O)c1ccc(-c2ccc3c(c2)CC[C@H](CNC[C@H](O)CSc2ccccc2F)O3)cc1", "note": "[Example 174]", "EC50": "≤ 1000"}
{"smiles": "O=C(O)c1ccc(-c2ccc3c(c2)CC[C@H](CNC[C@H](O)CSc2ccc(C(F)(F)F)cc2)O3)cc1", "note": "[Example 181]", "EC50": "> 1000"}
{"smiles": "O=C(O)CCc1ccc2c(c1)CC[C@H](CNC[C@H](O)COc1ccccc1F)O2", "note": "[Example 265, 3-[(2R)-2-({[(2S)-3-(2-Fluorophenoxy)-2-hydroxypropyl]amino}methyl)-3,4-dihydro-2H-chromen-6-yl]propanoic acid]", "EC50": "≤ 1000"}
{"smiles": "O=C(O)c1ccc(-c2ccc3c(c2)CCC(CNC[C@H](O)COc2ccccc2)O3)cc1O", "note": "(stereo in doubt) [Example 213, 2-hydroxy-4-[(2S)-2-({[(2S)-2-hydroxy-3-phenoxypropyl]amino}methyl)-3,4-dihydro-2H-chromen-6-yl]benzoic acid]", "EC50": "≤ 1000"}
{"smiles": "O=C(O)c1ccc(-c2ccc3c(c2)CC[C@H](CNC[C@H](O)COc2ccccc2)O3)cc1", "note": "[Example 142, 4-[(2R)-2-({[(2S)-2-Hydroxy-3-phenoxyropyl]amino}methyl)-3,4-dihydro-2H-chromen-6-yl]benzoic acid]", "EC50": "≤ 1000"}
{"smiles": "O=C(O)c1ccc(-c2ccc3c(c2)CC[C@H](CNC[C@H](O)COc2cccc(Cl)c2)O3)cc1", "note": "[Example 254]", "EC50": "≤ 1000"}
{"smiles": "O=C(O)c1ccc2cc(-c3ccc4c(c3)CC[C@H](CNC[C@H](O)COc3ccccc3)O4)ccc2c1", "note": "[Example 182]", "EC50": "≤ 1000"}
{"smiles": "O=C(O)c1ccc(-c2ccc3c(c2)CC[C@H](CNC[C@H](O)COc2ccc(O)cc2)O3)cc1", "note": "[Example 163]", "EC50": "≤ 1000"}
{"smiles": "COc1ccc(SC[C@@H](O)CNC[C@H]2CCc3cc(-c4ccc(C(=O)O)cc4)ccc3O2)cc1", "note": "[Example 179]", "EC50": "> 1000"}
{"smiles": "CCOC(=O)c1sc(-c2ccc3c(c2)CC[C@H](CNC[C@H](O)COc2ccccc2)O3)nc1C(C)C", "note": "[Example 137]", "EC50": "> 1000"}
{"smiles": "CCCCNc1cc(-c2ccc3c(c2)CC[C@H](CNC[C@H](O)COc2ccccc2)O3)ccc1C(=O)O", "note": "[Example 195, 2-(butylamino)-4-[(2R)-2-({[(2)-2-hydroxy-3-(phenyloxy)propyl]amino}methyl)-3,4-dihydro-2H-chromen-6-yl]benzoic acid]", "EC50": "≤ 1000"}
{"smiles": "NC(=O)c1cc2c(OCC(O)CNC[C@H]3CCc4cc(CCC(=O)O)ccc4O3)cccc2[nH]1", "note": "(stereo partly drawn) [Example 270]", "EC50": "> 1000"}
{"smiles": "O=C(O)c1ccc(-c2ccc3c(c2)CC[C@H](CNC[C@H](O)COc2ccccc2)O3)cc1NC1CCC1", "note": "[Example 201]", "EC50": "≤ 1000"}
{"smiles": "Cc1cc(C)c(OCC(O)CNC[C@H]2CCc3cc(-c4ccc(C(=O)O)cc4)ccc3O2)c(C)c1", "note": "(stereo partly drawn) [Example 222]", "EC50": "> 1000"}
{"smiles": "Nc1cc(-c2ccc3c(c2)CC[C@H](CNC[C@H](O)COc2ccccc2)O3)ccc1C(=O)O", "note": "[Example 198]", "EC50": "≤ 1000"}
{"smiles": "CCOC(=O)c1nn(C)c(C)c1-c1ccc2c(c1)CC[C@H](CNC[C@H](O)COc1ccccc1)O2", "note": "[Example 131]", "EC50": "≤ 1000"}
{"smiles": "COC(=O)c1csc(-c2ccc3c(c2)CC[C@H](CNC[C@H](O)COc2ccccc2)O3)c1", "note": "[Example 132]", "EC50": "≤ 1000"}
{"smiles": "O=C(O)c1ccc(-c2ccc3c(c2)CC[C@H](CNCC(O)COc2ccccc2Cl)O3)cc1", "note": "(stereo partly drawn) [Example 234]", "EC50": "≤ 1000"}
{"smiles": "O=C(O)c1ccc(-c2ccc3c(c2)CC[C@H](CNC[C@H](O)COc2ccccc2F)O3)cc1", "note": "[Example 253]", "EC50": "≤ 1000"}
{"smiles": "COc1cccc(SC[C@@H](O)CNC[C@H]2CCc3cc(-c4ccc(C(=O)O)cc4)ccc3O2)c1", "note": "[Example 178]", "EC50": "> 1000"}
{"smiles": "CC(C)Oc1cc(-c2ccc3c(c2)CC[C@H](CNC[C@H](O)COc2ccccc2)O3)ccc1C(=O)O", "note": "[Example 211]", "EC50": "≤ 1000"}
{"smiles": "CCCOc1cc(-c2ccc3c(c2)CC[C@H](CNC[C@H](O)COc2ccccc2)O3)ccc1C(=O)O", "note": "[Example 208]", "EC50": "≤ 1000"}
{"smiles": "O=C(O)c1ccc(-c2ccc3c(c2)CC[C@H](CNC[C@H](O)COc2ccccc2)O3)cc1NC1CCCCC1", "note": "[Example 197]", "EC50": "≤ 1000"}
{"smiles": "O=C(O)c1ccc(-c2ccc3c(c2)CC[C@H](CNC[C@H](O)CSc2ccc(Cl)cc2)O3)cc1", "note": "[Example 173]", "EC50": "> 1000"}
{"smiles": "CCCCOc1cc(-c2ccc3c(c2)CC[C@H](CNC[C@H](O)COc2ccccc2)O3)ccc1C(=O)O", "note": "[Example 212]", "EC50": "≤ 1000"}
{"smiles": "CCN(CC)c1cc(-c2ccc3c(c2)CC[C@H](CNC[C@H](O)COc2ccccc2)O3)ccc1C(=O)O", "note": "[Example 199]", "EC50": "≤ 1000"}
{"smiles": "CC(C)c1ccccc1SC[C@@H](O)CNC[C@H]1CCc2cc(-c3ccc(C(=O)O)cc3)ccc2O1", "note": "[Example 171]", "EC50": "≤ 1000"}
